Measured values reported in patent publication US20230303570A1, “KINASE INHIBITORS AND USES THEREOF” (ABM Therapeutics Corporation, priority 2020, published 2023).

Key:
Axl = biological target: T1, Axl (Homo sapiens, UniProt P30530); experiment: AXL kinase mobility shift assay; format: biochemical
T1 sequence (P30530 26-894): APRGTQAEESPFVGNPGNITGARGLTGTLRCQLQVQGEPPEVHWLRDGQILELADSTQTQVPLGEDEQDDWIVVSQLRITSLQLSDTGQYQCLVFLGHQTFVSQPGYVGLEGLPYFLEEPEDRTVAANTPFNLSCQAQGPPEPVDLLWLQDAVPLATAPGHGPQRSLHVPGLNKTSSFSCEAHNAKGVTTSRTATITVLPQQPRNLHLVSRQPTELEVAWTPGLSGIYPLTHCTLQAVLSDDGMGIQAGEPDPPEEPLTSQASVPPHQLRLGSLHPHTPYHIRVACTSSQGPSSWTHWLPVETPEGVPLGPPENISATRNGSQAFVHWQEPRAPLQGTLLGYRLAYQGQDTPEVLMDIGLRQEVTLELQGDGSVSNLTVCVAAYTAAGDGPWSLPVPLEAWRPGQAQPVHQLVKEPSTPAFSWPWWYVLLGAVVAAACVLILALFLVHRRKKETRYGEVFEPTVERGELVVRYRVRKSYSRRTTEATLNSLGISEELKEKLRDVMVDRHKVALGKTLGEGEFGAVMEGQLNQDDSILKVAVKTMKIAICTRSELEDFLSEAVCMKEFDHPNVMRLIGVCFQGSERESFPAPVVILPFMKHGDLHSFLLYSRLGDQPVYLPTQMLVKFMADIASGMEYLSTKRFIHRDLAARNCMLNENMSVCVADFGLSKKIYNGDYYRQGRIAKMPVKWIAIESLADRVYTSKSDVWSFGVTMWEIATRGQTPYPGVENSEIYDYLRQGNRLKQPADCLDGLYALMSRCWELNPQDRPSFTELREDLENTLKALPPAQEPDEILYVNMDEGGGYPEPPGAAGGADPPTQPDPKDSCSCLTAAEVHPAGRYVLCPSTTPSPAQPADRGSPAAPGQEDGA
Description: (§1) The effect of the compounds on the activity of cKit, RET and AXL kinases were assessed by Mobility shift assay. • 1. 1× kinase base buffer and stop buffer for testing kinases were prepared • 1-1) 1× Kinase base buffer (50 mM HEPES, pH 7.5, 0.01% Triton X-100) • 1-2) Stop buffer (100 mM HEPES, pH 7.5, 0.015% Brij-35, 0.2% Coating Reagent #3, 50 mM EDTA) • 2. Compound and assay plate preparation: the compound was diluted to 50× of the final desired highest inhibitor concentration in reaction by 100% DMSO. 100 μl of this compound dilution was transferred to a well in a 96-well plate. For example, if the highest desired concentration was 5 μM, then 250 μM of compound DMSO solution was prepared in this step. For all compounds, the compound was serially diluted by transferring 10 μl to 70 μl of 100 DMSO in the next well and so forth for a total of 5 concentrations. 100 μl of 100% DMSO was added to two empty wells for no compound control and no enzyme control in the same 96-well plate. The plate was labeled as source plate. The intermediate plate was prepared by transferring 10 μl of compound from source plate to a new 96-well plate as the intermediate plate, adding 90 μl of 1× kinase buffer to each well of the intermediate plate, mixing the compounds in intermediate plate for 10 min on shaker. 5 μl of each well from the 96-well intermediate plate were transferred to a 384-well plate in duplicates. For example, A1 of the 96-well plate was transferred to A1 and A2 of the 384-well plate. A2 of the 96-well plate was transferred to A3 and A4 of the 384-well plate, and so on. • 4. Kinase reaction: The assay plate already contained 5 μl of compound in 10% DMSO. A 2.5× enzyme solution was prepared by adding kinases (cKit, RET, or AXL) and DTT in 1× kinase base buffer. 2.5× enzyme solution was transferred to the assay plate (by adding 10 μl of 2.5× enzyme solution to each well of the 384-well assay plate). The plate was incubated at room temperature for 10 min. 2.5× peptide solution was prepared by adding FAM-labeled peptide, ATP, MgCl2 in the 1× kinase base buffer. 2.5× peptide solution was added to the assay plate by adding 10 μl of 2.5× peptide solution to each well of the 384-well assay plate. The plate was incubated at 28° C. for the specified period of time. 25 μl of stop buffer was added to stop reaction. Data was collected on Caliper.

HPK1 (MAP4K1) = HPK1 (MAP4K1) (Homo sapiens, UniProt Q92918); experiment: HPK1 (MAP4K1) kinase Lantha screen assay; format: biochemical
Procedure, shortened: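 Recombinant MAP4K1 preincubated 10 min with compound (6-point dilution, duplicates) in 50 mM HEPES pH 7.5, 10 mM MgCl2, then reacted with Fluorescein-PKC substrate and ATP for 90 min at room temperature. Antibody detection solution stopped reaction; after 60 min, TR-FRET read at ex 340 nm, em 520/495 nm.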

RET = RET (Homo sapiens, UniProt P07949); experiment: RET kinase mobility shift assay; format: biochemical
Description: as §1

c-Kit = c-Kit (Homo sapiens, UniProt P10721); experiment: cKit kinase mobility shift assay; format: biochemical
Procedure, shortened: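 Human kinase with DTT in 50 mM HEPES pH 7.5 and 0.01% Triton X-100 was preincubated with compound for 10 min at room temperature, using a 5-point dilution in duplicate. FAM-labeled peptide, ATP and MgCl2 were then added and the reaction run at 28° C. Reactions were stopped with EDTA buffer and peptide conversion was read by Caliper mobility shift.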

P-glycoprotein (MDR1) = experiment: in vitro; conditions: dog, MDCK-MDR1
PAK1 = PAK1 (Homo sapiens, UniProt Q13153); conditions: background statement on known PAK1 inhibitors; result in words only; cited from earlier work
PAK1, sequence (Q13153 whole entry): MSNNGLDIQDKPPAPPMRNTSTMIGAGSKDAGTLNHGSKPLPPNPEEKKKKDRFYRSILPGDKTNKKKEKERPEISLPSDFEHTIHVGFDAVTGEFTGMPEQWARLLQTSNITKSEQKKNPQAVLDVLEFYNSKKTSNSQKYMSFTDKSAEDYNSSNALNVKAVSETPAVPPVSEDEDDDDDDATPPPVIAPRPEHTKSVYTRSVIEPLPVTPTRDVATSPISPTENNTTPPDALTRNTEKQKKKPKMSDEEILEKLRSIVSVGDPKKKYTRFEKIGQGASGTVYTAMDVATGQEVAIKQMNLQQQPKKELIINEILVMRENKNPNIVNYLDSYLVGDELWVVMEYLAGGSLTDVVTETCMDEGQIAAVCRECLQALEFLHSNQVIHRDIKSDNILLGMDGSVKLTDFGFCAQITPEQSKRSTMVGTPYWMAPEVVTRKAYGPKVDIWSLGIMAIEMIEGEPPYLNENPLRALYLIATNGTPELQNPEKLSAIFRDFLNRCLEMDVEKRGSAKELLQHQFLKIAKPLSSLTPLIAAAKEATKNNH

HPK1 (MAP4K1), sequence (Q92918 whole entry, species assumed): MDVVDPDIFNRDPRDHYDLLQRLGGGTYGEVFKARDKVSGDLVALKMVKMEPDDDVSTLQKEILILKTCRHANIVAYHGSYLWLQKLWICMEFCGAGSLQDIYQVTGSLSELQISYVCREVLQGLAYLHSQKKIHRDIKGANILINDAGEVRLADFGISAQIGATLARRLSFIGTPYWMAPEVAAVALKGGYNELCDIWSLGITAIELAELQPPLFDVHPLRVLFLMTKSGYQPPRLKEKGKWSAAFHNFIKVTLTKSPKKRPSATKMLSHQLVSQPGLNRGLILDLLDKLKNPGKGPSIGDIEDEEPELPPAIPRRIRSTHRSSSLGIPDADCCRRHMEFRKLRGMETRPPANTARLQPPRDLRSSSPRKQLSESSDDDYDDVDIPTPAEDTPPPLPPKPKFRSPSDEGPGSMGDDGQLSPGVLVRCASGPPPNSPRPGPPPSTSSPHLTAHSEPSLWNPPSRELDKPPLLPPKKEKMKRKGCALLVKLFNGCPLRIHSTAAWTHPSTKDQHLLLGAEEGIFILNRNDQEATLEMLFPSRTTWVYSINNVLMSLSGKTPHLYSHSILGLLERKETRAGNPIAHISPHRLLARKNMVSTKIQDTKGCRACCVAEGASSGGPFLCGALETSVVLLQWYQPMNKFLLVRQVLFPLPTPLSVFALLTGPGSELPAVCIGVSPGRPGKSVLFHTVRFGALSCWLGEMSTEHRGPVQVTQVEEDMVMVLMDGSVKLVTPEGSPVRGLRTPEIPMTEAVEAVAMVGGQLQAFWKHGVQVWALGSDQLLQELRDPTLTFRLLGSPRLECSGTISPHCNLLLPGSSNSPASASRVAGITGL
RET, sequence (P07949 29-1114, species assumed): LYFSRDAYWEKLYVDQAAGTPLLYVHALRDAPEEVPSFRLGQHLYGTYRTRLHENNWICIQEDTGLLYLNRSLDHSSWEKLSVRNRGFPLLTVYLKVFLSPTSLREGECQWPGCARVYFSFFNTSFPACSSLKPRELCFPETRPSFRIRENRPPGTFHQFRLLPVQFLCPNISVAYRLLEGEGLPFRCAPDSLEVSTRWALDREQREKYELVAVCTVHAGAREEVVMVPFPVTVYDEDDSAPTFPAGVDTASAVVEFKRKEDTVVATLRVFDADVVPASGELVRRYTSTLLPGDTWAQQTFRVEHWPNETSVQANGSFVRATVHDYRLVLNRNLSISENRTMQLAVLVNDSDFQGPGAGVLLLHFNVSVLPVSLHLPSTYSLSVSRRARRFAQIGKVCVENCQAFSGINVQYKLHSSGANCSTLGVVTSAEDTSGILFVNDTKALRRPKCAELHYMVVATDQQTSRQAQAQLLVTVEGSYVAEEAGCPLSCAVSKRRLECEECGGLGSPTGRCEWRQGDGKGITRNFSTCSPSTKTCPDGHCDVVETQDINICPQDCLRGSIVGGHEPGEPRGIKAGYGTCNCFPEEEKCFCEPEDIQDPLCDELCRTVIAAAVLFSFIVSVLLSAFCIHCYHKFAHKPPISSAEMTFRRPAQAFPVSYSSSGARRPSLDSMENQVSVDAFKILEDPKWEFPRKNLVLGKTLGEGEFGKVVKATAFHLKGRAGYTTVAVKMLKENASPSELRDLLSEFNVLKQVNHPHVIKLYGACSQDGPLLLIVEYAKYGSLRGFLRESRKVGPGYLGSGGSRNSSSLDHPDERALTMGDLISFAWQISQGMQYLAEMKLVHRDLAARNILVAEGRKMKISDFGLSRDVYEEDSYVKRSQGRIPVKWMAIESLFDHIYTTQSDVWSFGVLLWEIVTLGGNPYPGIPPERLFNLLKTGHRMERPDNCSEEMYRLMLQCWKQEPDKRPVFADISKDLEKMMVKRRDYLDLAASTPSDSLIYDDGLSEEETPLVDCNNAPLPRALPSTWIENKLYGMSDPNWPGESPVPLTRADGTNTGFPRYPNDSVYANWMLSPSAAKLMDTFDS
c-Kit, sequence (P10721 26-976): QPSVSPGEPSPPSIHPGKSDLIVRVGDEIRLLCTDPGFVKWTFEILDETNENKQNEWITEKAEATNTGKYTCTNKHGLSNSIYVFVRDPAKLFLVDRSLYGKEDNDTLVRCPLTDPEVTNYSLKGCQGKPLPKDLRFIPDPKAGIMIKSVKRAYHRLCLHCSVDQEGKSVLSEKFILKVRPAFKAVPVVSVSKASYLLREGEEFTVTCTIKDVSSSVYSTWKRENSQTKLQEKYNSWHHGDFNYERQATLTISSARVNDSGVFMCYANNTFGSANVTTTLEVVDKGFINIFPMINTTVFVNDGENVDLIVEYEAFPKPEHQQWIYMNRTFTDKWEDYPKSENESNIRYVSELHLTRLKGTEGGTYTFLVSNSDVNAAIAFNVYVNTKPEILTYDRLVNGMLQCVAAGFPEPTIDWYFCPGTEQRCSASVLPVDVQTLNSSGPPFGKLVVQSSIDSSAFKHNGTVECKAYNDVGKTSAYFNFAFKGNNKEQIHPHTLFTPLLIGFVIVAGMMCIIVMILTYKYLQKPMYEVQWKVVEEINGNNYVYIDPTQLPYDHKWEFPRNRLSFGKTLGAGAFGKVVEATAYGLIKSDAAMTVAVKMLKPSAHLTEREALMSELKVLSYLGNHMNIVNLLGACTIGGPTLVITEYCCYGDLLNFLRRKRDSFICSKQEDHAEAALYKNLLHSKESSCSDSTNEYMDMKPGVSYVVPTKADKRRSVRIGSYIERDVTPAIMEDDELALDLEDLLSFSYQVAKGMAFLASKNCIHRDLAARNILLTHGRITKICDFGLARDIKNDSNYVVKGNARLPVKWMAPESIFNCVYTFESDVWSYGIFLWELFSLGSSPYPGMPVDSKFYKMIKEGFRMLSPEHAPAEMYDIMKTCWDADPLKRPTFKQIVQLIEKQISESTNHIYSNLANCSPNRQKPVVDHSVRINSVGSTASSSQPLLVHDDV

Row | SMILES | IC50 (Axl) [µM] | IC50 (HPK1 (MAP4K1)) [µM] | IC50 (RET) [µM] | IC50 (c-Kit) [µM] | Papp A→B at 120 min (P-glycoprotein (MDR1)) [×10⁻⁶ cm/s] | Papp B→A at 120 min (P-glycoprotein (MDR1)) [×10⁻⁶ cm/s] | efflux ratio at 120 min (P-glycoprotein (MDR1)) | inhibition of the PAK1 enzyme (PAK1)
1 | CNc1ncc2c(n1)N1CCN=C1C(c1ccc(NC(=O)C3(C(=O)Nc4ccc(F)cc4)CC3)cc1F)=C2 [Compound 340, N-(3-fluoro-4-(2-(methylamino)-8,9-dihydroimidazo[1′,2′:1,6]pyrido[2,3-d]pyrimidin-6-yl)phenyl)-N-(4-fluorophenyl)cyclopropane-1,1-dicarboxamide] | > 10 | > 10 | 0.1 to 10 |  |  |  |  | 
2 | Cc1ccc(NC(=O)c2cc(C(F)(F)F)ccn2)cc1C1=Cc2cnc(NC3CCOCC3)nc2N2CCN=C12 [Compound 115, N-(4-methyl-3-(2-((tetrahydro-2H-pyran-4-yl)amino)-8,9-dihydroimidazo[1′,2′:1,6]pyrido[2,3-d]pyrimidin-6-yl)phenyl)-4-(trifluoromethyl)picolinamide hydrogen chloride] |  | < 0.1 |  | < 0.1 | 22.8 | 36.9 | 1.6 | 
3 | CNc1ncc2c(n1)N1CCN=C1C(c1cc(NC(=O)C3(C(=O)Nc4ccc(F)cc4)CC3)ccc1F)=C2 [Compound 341, N-(4-fluoro-3-(2-(methylamino)-8,9-dihydroimidazo[1′,2′:1,6]pyrido[2,3-d]pyrimidin-6-yl)phenyl)-N-(4-fluorophenyl)cyclopropane-1,1-dicarboxamide] | > 10 | < 0.1 | 0.1 to 10 |  |  |  |  | 
4 | CNc1ncc2cc(-c3ccc(-c4cccc(C)n4)cc3Cl)c(=O)n(C[C@H]3OC[C@H](N)CO3)c2n1 [Compound G-5555] |  |  |  |  |  |  |  | potent PAK1 inhibitors
